In ChEMBL document CHEMBL6092162, “Identification of novel and potent triazoles targeting CYP51 for antifungal: Design, synthesis, and biological study” (Eur J Med Chem, 2024):
≈ marks a conversion by molar mass, not a printed value.

Tests used:
[1] = tested on: Candida tropicalis; assay: Antifungal activity against Candida tropicalis GIM 2.183 assessed as inhibition of fungal growth by CLSI M27-A3 guidelines based method; assay type: functional
[2] = tested on: Candida albicans; assay: Antifungal activity against Candida albicans SC5314 assessed as inhibition of fungal growth by CLSI M27-A3 guidelines based method; assay type: functional
[3] = tested on: Candida albicans; assay: Antifungal activity against Candida albicans GIM 2.194 assessed as inhibition of fungal growth by CLSI M27-A3 guidelines based method; assay type: functional
[4] = tested on: Candida albicans; assay: Antifungal activity against fluconazole-resistant Candida albicans CaR assessed as inhibition of fungal growth by CLSI M27-A3 guidelines based method; assay type: functional
[5] = tested on: Nakaseomyces glabratus; assay: Antifungal activity against Candida glabrata assessed as inhibition of fungal growth by CLSI M27-A3 guidelines based method; assay type: functional
[6] = tested on: Candida albicans; assay: Antifungal activity against fluconazole-resistant Candida albicans clinical isolate 904 assessed as inhibition of fungal growth by CLSI M27-A3 guidelines based method; assay type: functional
[7] = tested on: Candida albicans; assay: Antifungal activity against fluconazole and iodiconazole resistant Candida albicans clinical isolate 17# assessed as inhibition of fungal growth by CLSI M27-A3 guidelines based method; assay type: functional
[8] = tested on: Candida albicans; assay: Antifungal activity against fluconazole-resistant Candida albicans clinical isolate 103 assessed as inhibition of fungal growth by CLSI M27-A3 guidelines based method; assay type: functional
[9] = tested on: Candida parapsilosis; assay: Antifungal activity against Candida parapsilosis GIM 2.190 assessed as inhibition of fungal growth by CLSI M27-A3 guidelines based method; assay type: functional; details: Lodderomyces parapsilosis
[10] = tested on: Pichia kudriavzevii; assay: Antifungal activity against Candida krusei GIM 2.1 assessed as inhibition of fungal growth by CLSI M27-A3 guidelines based method; assay type: functional
[11] = tested on: Candida albicans; assay: Antifungal activity against fluconazole-resistant Candida albicans clinical isolate 901 assessed as inhibition of fungal growth by CLSI M27-A3 guidelines based method; assay type: functional
[12] = tested on: Candida albicans; assay: Antifungal activity against fluconazole-resistant Candida albicans clinical isolate 311 assessed as inhibition of fungal growth by CLSI M27-A3 guidelines based method; assay type: functional
[13] = tested on: Candida albicans; assay: Antifungal activity against fluconazole-resistant Candida albicans clinical isolate 632 assessed as inhibition of fungal growth by CLSI M27-A3 guidelines based method; assay type: functional
[14] = tested on: Candida albicans; assay: Antifungal activity against fluconazole-resistant Candida albicans clinical isolate 100 assessed as inhibition of fungal growth by CLSI M27-A3 guidelines based method; assay type: functional
[15] = tested on: Cryptococcus neoformans; assay: Antifungal activity against Cryptococcus neoformans CGMCC 2.3161 assessed as inhibition of fungal growth by CLSI M27-A3 guidelines based method; assay type: functional
[16] = tested on: Candida albicans; assay: Fungicidal activity against Candida albicans SC5314 incubated for 48 hrs by SDA plate based method; assay type: functional
[17] = tested on: Candida albicans; assay: Antibiofilm activity against fluconazole-resistant Candida albicans CPCC400616 assessed as inhibition of metabolic activity of biofilm measured after 6 hrs by XTT reduction assay; assay type: functional
[18] = tested on: Candida albicans; assay: Effect on sterol composition in Candida albicans SC5314 assessed as other sterols content at 1 microg/ml measured after 16 hrs by GC-MS analysis (reference value: 1.06 %); assay type: functional; details: dose 1 µg/ml
[19] = tested on: Candida albicans; assay: Effect on sterol composition in Candida albicans SC5314 assessed as 14alpha-demethyllanosterol content at 1 microg/ml measured after 16 hrs by GC-MS analysis (reference value: 1.98 %); assay type: functional; details: dose 1 µg/ml
[20] = Cytotoxicity against human OVCAR-3 cells assessed as inhibition of cell growth incubated for 72 hrs by MTT assay; assay type: toxicity, cell-based
[21] = tested on: Candida albicans; assay: Effect on sterol composition in Candida albicans SC5314 assessed as obtusifoliol content at 1 microg/ml measured after 16 hrs by GC-MS analysis relative to control; assay type: functional; details: dose 1 µg/ml
[22] = Cytotoxicity against HEK293T cells assessed as inhibition of cell growth incubated for 72 hrs by MTT assay; assay type: toxicity, cell-based, HEK-293T; details: human
[23] = tested on: Candida albicans; assay: Antibiofilm activity against fluconazole-resistant Candida albicans CPCC400616 assessed as inhibition of metabolic activity of biofilm measured after 24 hrs by XTT reduction assay; assay type: functional
[24] = tested on: Candida albicans; assay: Antibiofilm activity against fluconazole-resistant Candida albicans CPCC400616 assessed as inhibition of metabolic activity of biofilm measured after 48 hrs by XTT reduction assay; assay type: functional
[25] = tested on: Candida albicans; assay: Effect on sterol composition in Candida albicans SC5314 assessed as lanosterol content at 1 microg/ml measured after 16 hrs by GC-MS analysis relative to control; assay type: functional; details: dose 1 µg/ml
[26] = tested on: Candida albicans; assay: Fungicidal activity against fluconazole and iodiconazole resistant Candida albicans clinical isolate 17# incubated for 48 hrs by SDA plate based method; assay type: functional
[27] = Cytotoxicity against human NCI-H460 cells assessed as inhibition of cell growth incubated for 72 hrs by MTT assay; assay type: toxicity, cell-based
[28] = tested on: Candida albicans; assay: Effect on sterol composition in Candida albicans SC5314 assessed as ergosterol content at 1 microg/ml measured after 16 hrs by GC-MS analysis (reference value: 96.96 %); assay type: functional; details: dose 1 µg/ml
[29] = tested on: Candida albicans; assay: Antibiofilm activity against Candida albicans CPCC400616 assessed as inhibition of morphological transformation by measuring disappearance of mycelium at 2 microg/ml incubated for 4 hrs by microscopic photograph analysis; assay type: functional, organism-based; details: dose 2.0 µg/ml
[30] = tested on: Candida albicans; assay: Effect on sterol composition in Candida albicans SC5314 assessed as eburicol content at 1 microg/ml measured after 16 hrs by GC-MS analysis relative to control; assay type: functional; details: dose 1 µg/ml
[31] = Cytotoxicity against HUVEC cells assessed as inhibition of cell growth incubated for 72 hrs by MTT assay; assay type: toxicity, cell-based; details: human

Row | Compound | MIC80 [1] [µg/mL] | MIC80 [2] [µg/mL] | MIC80 [3] [µg/mL] | MIC80 [4] [µg/mL] | MIC80 [5] [µg/mL] | MIC80 [6] [µg/mL] | MIC80 [7] [µg/mL] | MIC80 [8] [µg/mL] | MIC80 [9] [µg/mL] | MIC80 [10] [µg/mL] | MIC80 [11] [µg/mL] | MIC80 [12] [µg/mL] | MIC80 [13] [µg/mL] | MIC80 [14] [µg/mL] | MIC80 [15] [µg/mL] | other results
1 | CN(Cc1ccc(N2CCN(Cc3ccccc3Br)CC2)cc1)CC(O)(Cn1cncn1)c1ccc(F)cc1F (centres undefined) | 0.013 (≈ 0.0213 µM) | 0.013 (≈ 0.0213 µM) | 0.006 (≈ 0.00981 µM) | 0.063 (≈ 0.103 µM) | 0.1 (≈ 0.164 µM) | 16 (≈ 26.2 µM) | 0.063 (≈ 0.103 µM) | 16 (≈ 26.2 µM) | 0.006 (≈ 0.00981 µM) | 0.1 (≈ 0.164 µM) | > 64 | 32 (≈ 52.3 µM) | 8 (≈ 13.1 µM) | 4 (≈ 6.54 µM) |  | 
2 | CN(Cc1ccc(N2CCN(Cc3cccc(Br)c3)CC2)cc1)CC(O)(Cn1cncn1)c1ccc(F)cc1F (centres undefined) | 0.013 (≈ 0.0213 µM) | 0.013 (≈ 0.0213 µM) | 0.013 (≈ 0.0213 µM) | 0.063 (≈ 0.103 µM) | 0.2 (≈ 0.327 µM) | 16 (≈ 26.2 µM) | 0.063 (≈ 0.103 µM) | 32 (≈ 52.3 µM) | 0.006 (≈ 0.00981 µM) | 0.1 (≈ 0.164 µM) | > 64 | 32 (≈ 52.3 µM) | 8 (≈ 13.1 µM) | 8 (≈ 13.1 µM) | 0.1 (≈ 0.164 µM) | 
3 | OC(Cn1cncn1)(Cn1cncn1)c1ccc(F)cc1F [FLUCONAZOLE] | 0.25 (≈ 0.816 µM) | 0.25 (≈ 0.816 µM) | 0.5 (≈ 1.63 µM) | > 64 | 8 (≈ 26.1 µM) | > 64 | > 64 | > 64 | 1 (≈ 3.27 µM) | 8 (≈ 26.1 µM) | > 64 | > 64 | > 64 | > 64 | 4 (≈ 13.1 µM) | MFC [16]: > 64 µg/mL; MIC50 [17]: 16 µg/mL (≈ 52.2 µM); Activity [18]: 8.64%; Activity [19]: 3.03%; IC50 at 72 h [20]: > 40 µM; Activity [21]: 14.37%; IC50 at 72 h [22]: > 40 µM; MIC50 [23]: > 32 µg/mL; MIC50 [24]: > 32 µg/mL; Activity [25]: 9.3%; MFC [26]: > 64 µg/mL; IC50 at 72 h [27]: > 40 µM; Activity [28]: 4.57%; Activity [29]: Not active; Oval Shaped Yeast Phase Fungi Observed; Activity [30]: 60.09%; IC50 at 72 h [31]: > 40 µM
4 | CN(Cc1ccc(N2CCN(Cc3ccc(C(F)(F)F)cc3)CC2)cc1)CC(O)(Cn1cncn1)c1ccc(F)cc1F (centres undefined) | 0.013 (≈ 0.0216 µM) | 0.013 (≈ 0.0216 µM) | 0.013 (≈ 0.0216 µM) | 0.063 (≈ 0.105 µM) | 0.1 (≈ 0.166 µM) | 32 (≈ 53.3 µM) | 0.125 (≈ 0.208 µM) | 32 (≈ 53.3 µM) | 0.013 (≈ 0.0216 µM) |  | > 64 | 32 (≈ 53.3 µM) | 16 (≈ 26.6 µM) | 8 (≈ 13.3 µM) | 0.1 (≈ 0.166 µM) | 
